# Test system: A549 xenografts
# Experiment: A549 xenograft study
# Assay type: in vivo, mice
# Conditions: P8-A1 q4dx4 i.v. 0.4 mg/kg; Lipo4*-P8-A1 q4dx11 i.v. 0.4 mg/kg; cisplatin q4dx11 i.p. 4.0 mg/kg; n=8
# Method: FIGS. 10A, 10B, 10C and 10D illustrate evaluation of P8-A1 and its liposomal formulation, Lipo4-P8-A1, in a A549 xenograft model in mice. FIGS. 10 A-B illustrate tumor volumes and mouse weights monitored for Lipo4-P8-A1 and control, administered q4dx4, i.v. @ 0.4 mg/kg, n=10. Tumor growth inhibition is 65% on day 41, P<0.05. Mouse weight loss is 22% on day 41, potentially reversible. No other toxicity symptoms noted. FIGS. 10 C-D illustrate tumor volumes and mouse weights monitored for P8-A1 (q4dx4, i.v. @ 0.4 mg/kg), Lipo4*-P8-A1, (q4dx11, i.v. @ 0.4 mg/kg), cisplatin (q4dx11, i.p. @ 4.0 mg/kg), and control (q4dx11, i.v.). A total of 8 mice per group were treated (n=8). See text for discussion. […]
# A549 Xenograft study. […] Animal weights and tumor volumes were measured and recorded throughout the entire study after the first dose was administered. Tumor volumes were determined using the formula: V (mm^3)=d^2×D/2, where d and D are the shortest and longest dimension of the tumor, respectively, and are reported as the sum of both tumors for each test animal. […] The concentration of Pt in selected tissues was determined by quadrupole inductively-coupled mass spectrometry (ICP-MS) on a Thermo ICP-MS instrument at the Analytic Chemistry Service facility of Research Triangle Institute, Research Triangle Park, N.C. […]
smiles,measurement,value
"N.N.[Cl][Pt][Cl] [Cisplatin, cisplatin]","antitumor efficacy, growth inhibition (Study B)",does not show efficacy
